Assay results as given in patent US10800792B2, “Inhibitors of Bruton's tyrosine kinase and method of their use” (JANSSEN PHARMACEUTICA NV, priority 2015, dated 2020).

Target: unphosphorylated-BTK kinase domain (UP-BTK), GST-tagged human BTK (389-659aa) (Homo sapiens (Human), UniProt Q06187)
Assay: BTK kinase Lanthascreen binding assay
Settings: pIC50 = negative log of the IC50 in molar
Protocol: BTK Kinase Lanthascreen Binding Assay:
A BTK kinase lanthascreen binding assay monitors compound binding to unphosphorylated-BTK kinase domain (UP-BTK), by competing with a fluorescent labeled tracer. […] Data were analyzed using Xlfit™ version 5.3 from ID Business Solutions (Guildford), Microsoft Excel add-in. pIC50 refers to the negative log of the IC50 in molar

[1] = unphosphorylated-BTK kinase domain, 50 nM Tracer 236, 60 minutes
[2] = 60 minutes incubation, 50 nM Tracer 236
[3] = Lanthascreen tracer competition, 60 minutes incubation

Sequence of unphosphorylated-BTK kinase domain (UP-BTK), GST-tagged human BTK (389-659aa) (Q06187 389-659): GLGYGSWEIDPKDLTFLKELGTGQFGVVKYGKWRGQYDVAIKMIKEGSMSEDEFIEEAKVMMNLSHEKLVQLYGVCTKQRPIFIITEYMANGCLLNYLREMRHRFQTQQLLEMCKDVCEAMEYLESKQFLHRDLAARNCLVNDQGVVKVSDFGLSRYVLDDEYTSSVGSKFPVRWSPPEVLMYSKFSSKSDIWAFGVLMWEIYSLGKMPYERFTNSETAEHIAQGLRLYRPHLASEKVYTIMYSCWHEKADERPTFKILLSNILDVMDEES

Compound | BTK_I_binding pIC50 [1] | BTK_I_binding pIC50 [3] | also measured
CC(C)=C(Cl)C(=O)N1CCC[C@@H](NC(=O)c2sc3nccc4c3c2NC(=O)N4c2ccc(Oc3ccccc3)cc2C)C1 (single isomer, unassigned) [Example 438, (R)—N-(1-(2-Chloro-3-methylbut-2-enoyl)piperidin-3-yl)-5-(*S)-(2-methyl-4-phenoxyphenyl)-4-oxo-4,5-dihydro-3H-1-thia-3,5,8-triazaacenaphthylene-2-carboxamide] | 6.7 | – | –
Cc1cc(Oc2ccccc2)ccc1N1C(=O)Nc2c(C(=O)N[C@H]3CCOC3)sc3nccc1c23 (single isomer, unassigned) [Example 68, (S)-5-(*S)-(2-Methyl-4-phenoxyphenyl)-4-oxo-N-(tetrahydrofuran-3-yl)-4,5-dihydro-3H-1-thia-3,5,8-triazaacenaphthylene-2-carboxamide] | – | – | BTK_I_binding pIC50 [2]: 7.7
N#C/C(=C\C1CC1)C(=O)N1CCC[C@H](NC(=O)c2sc3nccc4c3c2NC(=O)N4c2ccc(C(=O)Nc3cc(C(F)(F)F)ccn3)cc2F)C1 [Example 902, (S,E)-N-(1-(2-Cyano-3-cyclopropylacryloyl)piperidin-3-yl)-5-(2-fluoro-4-((4-(trifluoromethyl)pyridin-2-yl)carbamoyl)phenyl)-4-oxo-4,5-dihydro-3H-1-thia-3,5,8-triazaacenaphthylene-2-carboxamide] | – | – | BTK_I_binding pIC50 (unphosphorylated-BTK kinase domain, 60 minutes incubation, 50 nM Tracer 236): 6.8
Cc1cc(Oc2ccccc2)ccc1N1C(=O)Nc2c(C(=O)N[C@@H]3CNC(=O)C3)sc3nccc1c23 (single isomer, unassigned) [Example 470, (*S)-5-(*R)-(2-Methyl-4-phenoxyphenyl)-4-oxo-N-(5-oxopyrrolidin-3-yl)-4,5-dihydro-3H-1-thia-3,5,8-triazaacenaphthylene-2-carboxamide] | 5.6 | – | –
C=CC(=O)N1CCC[C@@H](NC(=O)c2sc3nccc4c3c2NC(=O)N4c2cccc(C3CCC3)c2)C1 [Example 534, (R)—N-(1-Acryloylpiperidin-3-yl)-5-(3-cyclobutylphenyl)-4-oxo-4,5-dihydro-3H-1-thia-3,5,8-triazaacenaphthylene-2-carboxamide] | 7.8 | – | –
CC(C)(C)OC(=O)N1CCC[C@@H](NC(=O)c2sc3nccc4c3c2NC(=O)N4c2cccc(C3CCOCC3)c2)C1 [Example 739, (R)-tert-Butyl 3-(4-oxo-5-(3-(tetrahydro-2H-pyran-4-yl)phenyl)-4,5-dihydro-3H-1-thia-3,5,8-triazaacenaphthylene-2-carboxamido)piperidine-1-carboxylate] | – | <6 | –
Cc1cc(OC2CCC2)ccc1N1C(=O)Nc2c(C(=O)N[C@@H]3CCCN(C)C3)sc3nccc1c23 [Example 284, (R)-5-(4-Cyclobutoxy-2-methylphenyl)-N-(1-methylpiperidin-3-yl)-4-oxo-4,5-dihydro-3H-1-thia-3,5,8-triazaacenaphthylene-2-carboxamide] | 6.2 | – | –
CC(C)c1cccc(N2C(=O)Nc3c(C(=O)N[C@@H]4CCCNC4)sc4nccc2c34)c1 [Example 630, (R)-5-(3-Isopropylphenyl)-4-oxo-N-(piperidin-3-yl)-4,5-dihydro-3H-1-thia-3,5,8-triazaacenaphthylene-2-carboxamide] | – | 5.9 | –
O=C(N[C@@H]1CCCNC1)c1sc2nccc3c2c1NC(=O)N3c1ccnc(C2CCC2)c1 [Example 634, (R)-5-(2-Cyclobutylpyridin-4-yl)-4-oxo-N-(piperidin-3-yl)-4,5-dihydro-3H-1-thia-3,5,8-triazaacenaphthylene-2-carboxamide] | – | 5.8 | –
CO[C@@H]1CN(C)C[C@@H]1NC(=O)c1sc2nccc3c2c1NC(=O)N3c1ccc(Oc2ccccc2)cc1C [Example 208, N-((3S,4R)-4-Methoxy-1-methylpyrrolidin-3-yl)-5-(2-methyl-4-phenoxyphenyl)-4-oxo-4,5-dihydro-3H-1-thia-3,5,8-triazaacenaphthylene-2-carboxamide] | – | – | BTK_I_binding pIC50 [2]: 6.8
